Consider 1 molecule from PMC3062473 (ChemMedChem, 2010).

One data set deals with T1, caspase 1 (Homo sapiens, UniProt P29466).
T1 sequence (P29466 120-297 limits assumed): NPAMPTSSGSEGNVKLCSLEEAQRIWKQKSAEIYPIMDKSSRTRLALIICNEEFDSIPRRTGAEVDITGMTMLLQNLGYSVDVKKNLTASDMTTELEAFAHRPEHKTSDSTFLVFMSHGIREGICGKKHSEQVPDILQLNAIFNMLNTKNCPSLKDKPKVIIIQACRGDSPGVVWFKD
T1 sequence (P29466 317-404 limits assumed): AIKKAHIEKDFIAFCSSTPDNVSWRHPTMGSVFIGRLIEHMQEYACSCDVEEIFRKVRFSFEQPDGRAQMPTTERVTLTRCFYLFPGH
In words: Reaction Biology caspase panel. The class given is biochemical. Conditions: read-out: Caspase 1 IC50; (Z-LEHD)2-R110 substrate; three separate experiments.

Data set [1] concerns the target T2, Caspase 8 (Homo sapiens, UniProt Q14790). Particulars: read-out: Ki caspase 8; cited from earlier work.
A short description of data set [2]: Plasma protein binding, equilibrium dialysis in 100% plasma. It counts as in vitro ADME, human. Conditions: human plasma, 100% plasma, equilibrium dialysis.
For a further data set, the target named is T3, Caspase 4 (Homo sapiens, UniProt P49662).
T3 sequence (P49662 81-270 limits assumed): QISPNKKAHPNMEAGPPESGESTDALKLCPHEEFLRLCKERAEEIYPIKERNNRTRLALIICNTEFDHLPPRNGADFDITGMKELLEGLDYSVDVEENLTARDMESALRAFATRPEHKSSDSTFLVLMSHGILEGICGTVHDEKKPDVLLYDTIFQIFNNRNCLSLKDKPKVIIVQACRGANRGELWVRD
T3 sequence (P49662 290-377 limits assumed): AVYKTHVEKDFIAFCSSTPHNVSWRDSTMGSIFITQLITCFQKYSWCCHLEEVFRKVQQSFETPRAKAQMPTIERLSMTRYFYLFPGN
Conditions: read-out: Ki caspase 4; cited from earlier work.

In data set [3] the target is T2, Caspase 8. In words: Reaction Biology caspase panel. It counts as biochemical. Conditions: read-out: Caspase 8 IC50; (Z-LEHD)2-R110 substrate; three separate experiments.
A further data set has as its system trypsin. Conditions: cited from earlier work.
The target in another data set is T4, Caspase 7 (Homo sapiens, UniProt P55210).
T4 sequence (P55210 24-198 limits assumed): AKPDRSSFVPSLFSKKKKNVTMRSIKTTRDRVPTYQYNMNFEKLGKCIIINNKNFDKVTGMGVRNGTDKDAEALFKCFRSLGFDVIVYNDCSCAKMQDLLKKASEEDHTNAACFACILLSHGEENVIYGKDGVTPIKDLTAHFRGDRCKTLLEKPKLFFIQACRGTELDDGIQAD
T4 sequence (P55210 207-303 limits assumed): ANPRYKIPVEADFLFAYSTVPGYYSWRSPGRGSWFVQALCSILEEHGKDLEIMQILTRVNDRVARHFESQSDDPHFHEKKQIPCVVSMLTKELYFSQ
Particulars: cited from earlier work.

The next data set concerns the target T5, Caspase 5 (Homo sapiens, UniProt P51878).
T5 sequence (P51878 137-327 limits assumed): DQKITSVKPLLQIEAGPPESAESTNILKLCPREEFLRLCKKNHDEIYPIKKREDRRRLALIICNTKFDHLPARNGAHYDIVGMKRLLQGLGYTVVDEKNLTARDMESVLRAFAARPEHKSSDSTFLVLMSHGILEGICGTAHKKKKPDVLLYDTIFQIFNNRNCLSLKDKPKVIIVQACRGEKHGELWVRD
T5 sequence (P51878 347-434 limits assumed): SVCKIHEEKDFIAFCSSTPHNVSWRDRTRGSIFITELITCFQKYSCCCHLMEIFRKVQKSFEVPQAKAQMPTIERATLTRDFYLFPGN
The data set can be described thus: Reaction Biology caspase panel. It counts as biochemical. Particulars: read-out: Caspase 5 IC50; (Z-LEHD)2-R110 substrate; three separate experiments.

For the next data set, the target named is T6, Caspase 14 (Homo sapiens, UniProt P31944).
T6 sequence (P31944 6-146 limits assumed): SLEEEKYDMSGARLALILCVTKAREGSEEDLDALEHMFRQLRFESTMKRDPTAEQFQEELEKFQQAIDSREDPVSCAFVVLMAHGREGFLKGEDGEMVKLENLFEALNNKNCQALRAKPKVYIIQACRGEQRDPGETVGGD
T6 sequence (P31944 153-242 limits assumed): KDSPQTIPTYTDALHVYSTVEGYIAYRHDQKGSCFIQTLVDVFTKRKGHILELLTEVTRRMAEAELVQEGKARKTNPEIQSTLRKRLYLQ
The data set can be described thus: Reaction Biology caspase panel. The class given is biochemical. Conditions: read-out: Caspase 14 IC50; (Z-LEHD)2-R110 substrate; three separate experiments.

For another data set, the target named is T7, Caspase 6 (Homo sapiens, UniProt P55212).
T7 sequence (P55212 24-179 limits assumed): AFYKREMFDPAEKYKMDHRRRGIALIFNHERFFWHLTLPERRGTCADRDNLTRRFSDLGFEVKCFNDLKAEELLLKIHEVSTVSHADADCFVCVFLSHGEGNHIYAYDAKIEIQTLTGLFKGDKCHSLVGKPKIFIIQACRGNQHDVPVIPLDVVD
T7 sequence (P55212 194-293 limits assumed): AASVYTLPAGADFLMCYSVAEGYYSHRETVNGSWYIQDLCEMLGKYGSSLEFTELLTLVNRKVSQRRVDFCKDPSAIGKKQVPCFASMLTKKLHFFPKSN
The data set can be described thus: Reaction Biology caspase panel. The class given is biochemical. Particulars: read-out: Caspase 6 IC50; (Z-DEVD)2-R110 substrate; three separate experiments.

pIC50, pKi: −log10 of the molar value.

T2 sequence (Q14790 217-374 limits assumed): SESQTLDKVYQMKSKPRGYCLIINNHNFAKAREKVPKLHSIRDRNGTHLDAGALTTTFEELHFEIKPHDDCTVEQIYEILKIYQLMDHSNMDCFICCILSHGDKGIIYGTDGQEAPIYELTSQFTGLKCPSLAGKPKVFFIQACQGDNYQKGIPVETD
T2 sequence (Q14790 385-479 limits assumed): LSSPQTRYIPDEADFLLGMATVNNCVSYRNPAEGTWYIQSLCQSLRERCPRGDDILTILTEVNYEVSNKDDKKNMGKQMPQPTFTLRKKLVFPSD

As to `CC(C)(C)[C@H](NC(=O)c1ccc(N)c(Cl)c1)C(=O)N1CCC[C@H]1C(=O)N[C@H](C=O)CC(=O)O` [Compound 2b, reference compound], the pIC50 (as a rule, the negative decadic logarithm of the IC50, by convention in mol/L) at caspase 1 was 9.69; on Caspase 8 [3] it was 8.48; at Caspase 5, 7.97; at Caspase 14 it was 7.23; on Caspase 6, under 5.00. Further, the pKi (in general, the negative decadic logarithm of the Ki, by convention in mol/L) on Caspase 8 [1] was 7.00; on Caspase 4, over 9.00. Also, the “Protein Binding fraction unbound” value in [2] is 0.420. For the same molecule, in the data set with trypsin, the activity against trypsin entry was “little activity”. Moreover, the “activity against caspase 7” value on Caspase 7 is “little activity”.
